*1 amine or outer side, *2 acyl side, *3 side chain or, on linkers, in order; H or OH if unused. Where a SMILES comes first, the peptide text is derived from it. Side-chain parts run from the residue outwards. [ ]: non-standard residue; d: D form. The star is where a group is joined. C20 diacid = O=C(O)CCCCCCCCCCCCCCCCCCC(=O)*; C18 diacid = O=C(O)CCCCCCCCCCCCCCCCC(=O)*; γGlu = O=C(O)[C@H](CCC(=O)[*:2])N[*:1]; Decanoyl = CCCCCCCCCC(=O)*; AEEA = NCCOCCOCC(=O)O; Aib = CC(C)(N)C(=O)O
Tests used:
[1] = In vitro subcutaneous tissue supernatant (SCts) stability and metabolite identification, rat; type: in vitro ADME; set-up: remaining at 2 h: dose or concentration left out as unconfirmed; conditions: male, Sprague Dawley; rat subcutaneous tissue supernatant (SCts), 37° C, 2 h
[2] = Chemical stability in buffer (pH 7.4 / pH 4.5), % purity loss; type: physicochemical; conditions: 40° C. vs 5° C., 14 or 28 days; for Buffer stability pH 7.4 % purity loss: 100 mM phosphate buffer pH 7.4
Procedure, shortened: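 LC-UV gave % loss after 14 or 28 days of storage at 5 °C or 40 °C. Samples were diluted supernatants from compound incubated 1 h at room temperature at 10 mg/mL target, in 100 mM acetate pH 4.5 or 100 mM phosphate pH 7.4.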

[3] = Pharmacokinetics in male Sprague Dawley rats after subcutaneous administration; type: in vivo; conditions: plasma, rat, IV
human CRF2a receptor = target: T1, human CRF2a receptor (Homo sapiens, UniProt Q13324); experiment: Activity at human CRF2a receptor, cAMP functional assay in TeloHEAC cells; type: cell-based; conditions: TeloHEAC cells stably expressing human CRF2a receptor, relative to urocortin 2 (100 nM = 100%)
T1 construct: expressed in transfected cells; host or cells: TeloHEAC cells
T1 sequence (Q13324 1-411): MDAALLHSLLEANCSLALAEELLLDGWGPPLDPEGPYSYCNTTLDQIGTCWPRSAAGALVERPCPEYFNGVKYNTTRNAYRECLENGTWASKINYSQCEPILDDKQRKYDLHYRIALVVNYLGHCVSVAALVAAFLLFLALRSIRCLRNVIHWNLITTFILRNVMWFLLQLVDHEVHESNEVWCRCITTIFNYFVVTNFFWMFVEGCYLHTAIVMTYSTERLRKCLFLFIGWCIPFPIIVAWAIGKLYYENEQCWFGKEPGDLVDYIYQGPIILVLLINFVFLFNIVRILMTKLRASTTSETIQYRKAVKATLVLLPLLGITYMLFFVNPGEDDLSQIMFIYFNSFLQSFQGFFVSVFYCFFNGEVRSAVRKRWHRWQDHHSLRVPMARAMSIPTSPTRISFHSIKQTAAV
Procedure, shortened: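 TeloHEAC cells stably expressing human CRF2a (10000 cells/well) were treated with 16-point 1:2 compound dilutions in HBSS/20 mM HEPES with IBMX for 30 min at 37° C. cAMP was read by HTRF (665/620 nm ratio). EC50 was the concentration giving 50% activation, with 100 nM urocortin 2 set as 100%.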

CFR1R receptor = target: T2, CFR1R receptor (Homo sapiens, UniProt P34998); experiment: Activity at anti-target CFR1R receptor, cAMP assay in CRF1R-overexpression CHO-K1 cells; type: cell-based; conditions: 100% = Sauvagine at 100 nM
T2 construct: host or cells: CHO-K1 (clone 2)
T2 sequence (P34998 24-415): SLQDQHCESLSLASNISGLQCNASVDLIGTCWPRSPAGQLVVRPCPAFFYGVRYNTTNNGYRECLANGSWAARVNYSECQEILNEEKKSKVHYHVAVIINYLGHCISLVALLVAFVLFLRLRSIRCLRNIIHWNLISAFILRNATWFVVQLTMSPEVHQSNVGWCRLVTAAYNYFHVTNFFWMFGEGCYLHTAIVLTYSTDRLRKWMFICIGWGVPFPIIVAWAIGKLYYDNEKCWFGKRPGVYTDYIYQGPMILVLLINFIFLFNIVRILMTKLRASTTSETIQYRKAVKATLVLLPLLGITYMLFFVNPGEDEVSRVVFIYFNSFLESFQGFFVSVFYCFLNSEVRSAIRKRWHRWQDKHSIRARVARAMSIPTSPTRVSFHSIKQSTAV
Procedure, shortened: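 Grow clone 2 to near confluence at 37° C. under 5% CO2 in F12 (Hams) with 10% FBS and G418, harvest, and freeze in 10% DMSO. Thaw and plate at 4000 cells/well. Then proceed per the TeloHAEC method, normalising to Sauvagine 100 nM as maximum.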

[4] = Pharmacokinetics in male Sprague Dawley rats after subcutaneous administration; type: in vivo; conditions: plasma, rat, SC, 0.05 mg/kg
Sprague Dawley rats = experiment: Effect on systolic blood pressure, telemetry in Sprague Dawley rats; type: in vivo, rat; conditions: 0.1 mg/kg SC
Procedure, shortened: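 Values are % change from a 1 h pre-dose baseline in systolic pressure, tracked by telemetry for up to 48 hours after a single 0.1 mg/kg subcutaneous dose. Rats (Sprague Dawley, n=2 per peptide) carried aortic catheters and recovered at least 10 days post-surgery; duration of action marks the last time point still showing an effect.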

With `CCCCCCCCCC(=O)N[C@H](C(=O)N[C@@H](CC(C)C)C(=O)N[C@@H](CO)C(=O)N[C@@H](CC(C)C)C(=O)N[C@@H](CC(=O)O)C(=O)N[C@@H](C(=O)N1CCC[C@H]1C(=O)N[C@H](C(=O)N[C@@H](CCCCN)C(=O)N[C@@H](CC(C)C)C(=O)N[C@@H](CCCCNC(=O)CC[C@H](NC(=O)CCCCCCCCCCCCCCCCCCC(=O)O)C(=O)O)C(=O)N[C@@H](CCCCN)C(=O)N[C@H](C(=O)N[C@@H](CC(C)C)C(=O)N[C@@H](CC(C)C)C(=O)N[C@@H](CCC(=O)O)C(=O)N[C@@H](CCC(N)=O)C(=O)N[C@@H](CCC(=O)O)C(=O)N[C@@H](CCCCN)C(=O)N[C@@H](CCC(N)=O)C(=O)N[C@@H](CCCCN)C(=O)N[C@@H](CCCCN)C(=O)N[C@@H](CCC(N)=O)C(=O)N[C@@H](CCCNC(=N)N)C(=O)N[C@@H](CCC(=O)O)C(=O)N[C@@H](CCC(N)=O)C(=O)N[C@@H](C)C(=O)N[C@@H](CCC(=O)O)C(=O)N[C@H](C(=O)N[C@@H](CC(N)=O)C(=O)NC(C)(C)C(=O)N[C@@H](CCC(N)=O)C(=O)N[C@H](C(=O)N[C@@H](CC(C)C)C(=O)N[C@@H](C)C(=O)N[C@@H](CCC(N)=O)C(=O)N[C@H](C(N)=O)C(C)C)[C@@H](C)CC)[C@@H](C)O)[C@@H](C)CC)[C@@H](C)CC)C(C)C)C(C)C` [compound 223] (Decanoyl-VLSLD[dV]PIKLK([γGlu-C20 diacid])KILLEQEKQKKQREQAETN[Aib]QILAQV-NH2) the remaining at 2 h [1] was 79%, the “Buffer stability pH 7.4 % purity loss” value [2] was −0.1/Not Tested % and the AUC(0-t) ([3]; 0.025 mg/kg) was 1920 ng·h/mL. The half-life ([3]; 0.025 mg/kg) was 2.8 h, the EC50 (human CRF2a receptor) was 0.08 nM and the “Emax (% I)” value (CFR1R receptor) was 58 % I. It also gave an AUC(0-t) [4] of 698 ng·h/mL, a Cmax [4] of 67 ng/mL and a Tmax [4] of 2 h. For the same compound, the half-life [4] was 6.5 h.
In the case of `CC[C@H](C)[C@H](NC(C)=O)C(=O)N[C@H](C(=O)N[C@@H](CC(C)C)C(=O)N[C@@H](CO)C(=O)N[C@@H](CC(C)C)C(=O)N[C@@H](CC(=O)O)C(=O)N[C@@H](C(=O)N1CCC[C@H]1C(=O)N[C@H](C(=O)N[C@@H](CCCCN)C(=O)N[C@@H](CC(C)C)C(=O)N[C@@H](CCCCNC(=O)COCCOCCNC(=O)CC[C@H](NC(=O)CCCCCCCCCCCCCCCCC(=O)O)C(=O)O)C(=O)N[C@@H](CCCCN)C(=O)N[C@H](C(=O)N[C@@H](CC(C)C)C(=O)N[C@@H](CC(C)C)C(=O)N[C@@H](CCC(=O)O)C(=O)N[C@@H](CCC(N)=O)C(=O)N[C@@H](CCC(=O)O)C(=O)N[C@@H](CCCCN)C(=O)N[C@@H](CCC(N)=O)C(=O)N[C@@H](CCCCN)C(=O)N[C@@H](CCCCN)C(=O)N[C@@H](CCC(N)=O)C(=O)N[C@@H](CCCNC(=N)N)C(=O)N[C@@H](CCC(=O)O)C(=O)N[C@@H](CCC(N)=O)C(=O)N[C@@H](C)C(=O)N[C@@H](CCC(=O)O)C(=O)N[C@H](C(=O)N[C@@H](CC(N)=O)C(=O)NC(C)(C)C(=O)N[C@@H](CCC(N)=O)C(=O)N[C@H](C(=O)N[C@@H](CC(C)C)C(=O)N[C@@H](C)C(=O)N[C@@H](CCC(N)=O)C(=O)N[C@H](C(N)=O)C(C)C)[C@@H](C)CC)[C@@H](C)O)[C@@H](C)CC)[C@@H](C)CC)C(C)C)C(C)C` [compound 203] (Ac-IVLSLD[dV]PIKLK([AEEA-γGlu-C18 diacid])KILLEQEKQKKQREQAETN[Aib]QILAQV-NH2), the remaining at 2 h [1] is reported as 65%, the “Buffer stability pH 4.5 % purity loss” value ([2]; 100 mM acetate buffer pH 4.5) is reported as 0.0/0.0 ^ % and the “Buffer stability pH 7.4 % purity loss” value [2] is reported as 0.0/0.0 ^ %. For the same compound, the “Systolic blood pressure (Mean) % change from baseline, 8 h” value (Sprague Dawley rats; 8 h, n=2) was −18%, the “Systolic blood pressure (Mean) % change from baseline, 12 h” value (Sprague Dawley rats; 12 h, n=2) was −11% and the “Systolic blood pressure (Mean) % change from baseline, 24 h” value (Sprague Dawley rats; 24 h, n=2) was 2%. It also gave a Duration of action (Sprague Dawley rats; last time point with an effect on BP still observed) of 23 h, an AUC(0-t) ([3]; 0.05 mg/kg) of 4860 ng·h/mL and a half-life ([3]; 0.05 mg/kg) of 6.2 h. For the same compound, the EC50 (human CRF2a receptor) was 0.43 nM, the “Emax (% I)” value (CFR1R receptor) was 3 % I and the EC50 (CFR1R receptor; cAMP) was > 250 nM.
